Measured values as given in the supplement of paper PMC4862054.

Tests used:
Conditions in all cases: incubation time: 72 h
BT-474 [1] = experiment: normalised response (% of control), CellTox Green; higher = less cell death (100 = DMSO, 0 = benzethonium chloride kill control)
In short: (§1)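 Breast cancer cell lines in 20 µl suspension were added to 384-well plates containing compound at 5 concentrations, spaced in 10-fold steps across a 10,000-fold range chosen for each compound, and incubated for 72 h. CellTox Green fluorescence was read at 485/520 nm, followed by CellTiter-Glo luminescence after 10 min at room temperature. Signals on each plate were normalised so that 0.1 % DMSO equals 100 and a positive kill control equals 0. Every value in the table is the normalised signal at one concentration of the series.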

BT-549 [2] = experiment: as above
In short: as §1

CAL-120 [3] = experiment: as above
In short: as §1

CAL-148 [4] = experiment: as above
In short: as §1

CAL-51 [5] = experiment: as above
In short: as §1

CAL-85-1 [6] = experiment: as above
In short: as §1

DU-4475 [7] = experiment: as above
In short: as §1

HCC1143 [8] = experiment: as above
In short: as §1

HCC1599 [9] = experiment: as above
In short: as §1

HCC1937 [10] = experiment: as above
In short: as §1

HDQ-P1 [11] = experiment: as above
In short: as §1

Hs578T [12] = experiment: as above
In short: as §1

MCF-10A [13] = experiment: as above
In short: as §1

MDA-MB-231 [14] = experiment: as above
In short: as §1

MDA-MB-436 [15] = experiment: as above
In short: as §1

MDA-MB-453 [16] = experiment: as above
In short: as §1

MDA-MB-468 [17] = experiment: as above
In short: as §1

MFM-223 [18] = experiment: as above
In short: as §1

BT-474 [19] = experiment: normalised response (% of control), CellTiter-Glo; higher = more viable cells (100 = DMSO, 0 = benzethonium chloride kill control)
Experimental: (§2)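 DSRT, 72 h incubation, CellTox Green / CellTiter-Glo readout. Signal is normalised to DMSO and benzethonium chloride controls. Value is the normalised response at dose 3.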

BT-549 [20] = experiment: as above
Experimental: as §2

CAL-120 [21] = experiment: as above
Experimental: as §2

CAL-148 [22] = experiment: as above
Experimental: as §2

CAL-51 [23] = experiment: as above
Experimental: as §2

CAL-85-1 [24] = experiment: as above
Experimental: as §2

DU-4475 [25] = experiment: as above
Experimental: as §2

HCC1143 [26] = experiment: as above
Experimental: as §2

HCC1599 [27] = experiment: as above
Experimental: as §2

HCC1937 [28] = experiment: as above
Experimental: as §2

HDQ-P1 [29] = experiment: as above
Experimental: as §2

Hs578T [30] = experiment: as above
Experimental: as §2

MCF-10A [31] = experiment: as above
Experimental: as §2

MDA-MB-231 [32] = experiment: as above
Experimental: as §2

MDA-MB-436 [33] = experiment: as above
Experimental: as §2

MDA-MB-453 [34] = experiment: as above
Experimental: as §2

MDA-MB-468 [35] = experiment: as above
Experimental: as §2

MFM-223 [36] = experiment: as above
Experimental: as §2

SK-BR-3 = experiment: as above
Experimental: as §2

Row | Structure (SMILES) | normalised response (BT-474 [1]) [%] | normalised response (BT-549 [2]) [%] | normalised response (CAL-120 [3]) [%] | normalised response (CAL-148 [4]) [%] | normalised response (CAL-51 [5]) [%] | normalised response (CAL-85-1 [6]) [%] | normalised response (DU-4475 [7]) [%] | normalised response (HCC1143 [8]) [%] | normalised response (HCC1599 [9]) [%] | normalised response (HCC1937 [10]) [%] | normalised response (HDQ-P1 [11]) [%] | normalised response (Hs578T [12]) [%] | normalised response (MCF-10A [13]) [%] | normalised response (MDA-MB-231 [14]) [%] | normalised response (MDA-MB-436 [15]) [%] | normalised response (MDA-MB-453 [16]) [%] | normalised response (MDA-MB-468 [17]) [%] | normalised response (MFM-223 [18]) [%] | normalised response (BT-474 [19]) [%] | normalised response (BT-549 [20]) [%] | normalised response (CAL-120 [21]) [%] | normalised response (CAL-148 [22]) [%] | normalised response (CAL-51 [23]) [%] | normalised response (CAL-85-1 [24]) [%] | normalised response (DU-4475 [25]) [%] | normalised response (HCC1143 [26]) [%] | normalised response (HCC1599 [27]) [%] | normalised response (HCC1937 [28]) [%] | normalised response (HDQ-P1 [29]) [%] | normalised response (Hs578T [30]) [%] | normalised response (MCF-10A [31]) [%] | normalised response (MDA-MB-231 [32]) [%] | normalised response (MDA-MB-436 [33]) [%] | normalised response (MDA-MB-453 [34]) [%] | normalised response (MDA-MB-468 [35]) [%] | normalised response (MFM-223 [36]) [%] | normalised response (SK-BR-3) [%]
1 | CC[C@H](CC#N)OC(=O)N[C@@H](C)c1cccc(NC(=O)Nc2ccc(-c3cnco3)c(OC)c2)c1 [AVN944] (100 nM) | 73.6 | 102 | 97.7 | 95.8 | 95 | 95.9 | 97.8 | 76.5 | 93.2 | 83 | 83.5 | 98.7 | 67.8 | 85.2 | 90.8 | 70.8 | 73.7 | 93.5 | 86.2 | 67.8 | 93.8 | 94.8 | 83.9 | 81.9 | 97.1 | 92.2 | 82.8 | 90.2 | 85.8 | 111 | 91.9 | 91.3 | 80.1 | 98.2 | 59.9 | 98.2 | 96
2 | CC(C)(C)Cn1c(N)nc2ccc(-c3[nH]c(C(C)(C)C)nc3-c3ccc(F)cc3)nc21 (100 nM) | 102 | 101 | 103 | 102 | 96.5 | 112 | 103 | 113 | 98.1 | 105 | 109 | 105 | 99.2 | 72.7 | 98 | 102 | 117 | 82.9 | 102 | 105 | 106 | 100 | 92.9 | 99.5 | 103 | 110 | 102 | 92.8 | 88.5 | 102 | 98.4 | 98.6 | 105 | 101 | 95.8 | 104 | 104
3 | CC/C(=C(\c1ccccc1)c1ccc(OCCN(C)C)cc1)c1ccccc1 [Tamoxifen] (100 nM) | 100 | 99.3 | 103 | 106 | 115 | 105 | 105 | 113 | 103 | 91.9 | 87.8 | 97.7 | 106 | 91.3 | 74.1 | 100 | 71.4 | 103 | 97.9 | 99.2 | 110 | 110 | 91.5 | 99.9 | 105 | 108 | 101 | 100 | 105 | 105 | 107 | 107 | 99.1 | 102 | 98 | 103 | 99.4
4 | CCN(CC)CCOc1ccc(C(=C(Cl)c2ccccc2)c2ccccc2)cc1 [Clomifene] (100 nM) | 96.8 | 105 | 102 | 96.2 | 112 | 106 | 100 | 112 | 98.5 | 59.1 | 97.7 | 75.9 | 104 | 106 | – | 104 | 91.3 | 102 | 105 | 103 | 103 | 109 | 102 | 101 | 103 | 102 | 87.8 | 101 | 99 | 113 | 95.2 | 106 | 98.5 | 103 | 94.1 | 104 | 104
